The structures appear in SMILES notation.

This note sets out measurements from patent US20150296783A1, “SYNERGISTIC COMBINATION OF A ZOXAMIDE COMPOUND AND TERBUTRYN FOR DRY FILM PROTECTION” (ROHM AND HAAS COMPANY, priority 2012, published 2015).

The test system of experiment [1] is Stichococcus bacillaris SAG 379-1a / CCAP 379/1a. The experiment is described as follows: Algal efficacy testing of dry paint film (modified ASTM 5589), Stichococcus. Format: cell-based. The settings on record: 3 weeks; for inhibition at 5000 ppm: Stichococcus bacillaris, 504 h, total conc 5000 ppm, visible algal growth vs blank; for Total conc (concentration chosen as minimum inhibitory concentration for SI): dry paint film, pass level ≧75% inhibition, total biocide in liquid paint. As to the method: (§1) Slurries containing 33% antimicrobial active ingredient (Zoxamide) and 45% antimicrobial ingredient Terbutryn were post added to a white, acrylic/silicone based outdoor paint free of biocides to give a total active ingredient concentration of […] respectively. These paints were then diluted with an antimicrobial free acrylic/silicone based paint and mixed to prepare targeted concentrations of antimicrobial compounds for the testing. The total biocides concentrations tested were 125, 250, 500, 1000, 2000 and 5000 ppm. After biocides addition or dilution, the paints were mixed 90 seconds with the horse power shaker (AXEL 75M3372/Agitateur SO-10MI) until uniformity was achieved. Paints containing different antimicrobial compounds at the same levels were mixed together in order to obtain the desired ratio of antimicrobial compounds. After one day, the paints were applied to Schleicher & Schuell filter paper at 280 μm wet film thickness and dried for 3 days at room temperature avoiding direct exposure to sunlight. Square discs (1.6 cm×1.6 cm) were cut out from each panel and were used as the substrate for algal efficacy tests. This sample size allowed for an agar border when the sample disc was placed into the well of the test plate.
(§2) Algal efficacy was tested according to modified ASTM 5589 which is a standard accelerated test method for determining resistance of various coatings (including paints) to algal defacement. To accommodate for high-throughput screening, this method was scaled down from petri dishes to 6-well plates. Bold Modified Basal Freshwater Nutrient Solution was used as growth medium. A single coated filter paper coupon was placed with a pair of sterile forceps at the center of the agar plug (on top) with the painted surface facing upwards. Algal inoculums were prepared by mixing equal concentrations (1×10^6 cfu/ml) and equal volumes of exponentially growing algae cultures.
(§3) Each well that contains a tested coupon was inoculated with 1750 μl of algal suspensions (1×10^6 cfu/ml) making sure that the whole surface (paint film as well as the agar surrounding it) was evenly covered. The plates were incubated at room temp (21° C.-25° C.) with cyclic exposure to light and dark phases, for a period of three weeks.
(§4) At the end of the three week incubation period, the samples were scored for percent inhibition regarding visible algal growth compared to the blank sample (0% inhibition).
(§5) The SI is calculated based on F .C. Kull et.
(§6) The minimal targeted inhibition was set at 75%, meaning a coupon with at least 75% algal growth inhibition was considered as a pass.

Another experiment concerns Chlorella sp. ATCC 7516. The experiment is described as follows: Algal efficacy testing of dry paint film (modified ASTM 5589), Chlorella. Format: cell-based. The settings on record: 3 weeks; for Total conc (concentration chosen as minimum inhibitory concentration for SI): dry paint film, pass level ≧75% inhibition, total biocide in liquid paint. As to the method: as §1, §2, §3, §4, §5, §6

By inhibition is commonly meant how much of the control response was suppressed. Low readings indicate a response near the control, high ones a response far below the control. `CCNc1nc(NC(C)(C)C)nc(SC)n1` [Terbutryn, N^2-tert-butyl-N^4-ethyl-6-methylthio-1,3,5-triazine-2,4-diamine]: in experiment [1], 5000 ppm produced 80% inhibition and the “Total conc (concentration chosen as minimum inhibitory concentration for SI)” value turned out to be 5000 ppm. The inhibition at 2000 ppm with Chlorella sp. ATCC 7516 (504 h, total conc 2000 ppm, visible algal growth vs blank) came to 85%. Also, the “Total conc (concentration chosen as minimum inhibitory concentration for SI)” value with Chlorella sp. ATCC 7516 is reported as 2000 ppm.

In the case of `CCC(C)(NC(=O)c1cc(Cl)c(C)c(Cl)c1)C(=O)CCl` (centres unmarked) [Zoxamide, 3,5-Dichloro-N-(3-chloro-1-ethyl-1-methyl-2-oxopropyl)-4-methylbenzamide], the inhibition at 5000 ppm in experiment [1] came out at 45%; with Chlorella sp. ATCC 7516 (504 h, total conc 5000 ppm, visible algal growth vs blank) it was 60%. Also, the “Total conc (concentration chosen as minimum inhibitory concentration for SI)” value (in experiment [1]; in the experiment on Chlorella sp. ATCC 7516) was 5000 ppm each time.
